Measurements taken from patent publication US20120122727A1, “IN VITRO METHOD FOR PREDICTING WHETHER A COMPOUND IS GENOTOXIC IN VIVO” (priority 2009, published 2012).

Legend:
[1] = system: primary mouse hepatocytes; assay: Gene expression (Affymetrix Mouse Genome 430 2.0) in primary mouse hepatocytes, true vs false GTX, 24 h and 48 h; conditions: log2, corrected for vehicle control
[2] = system: primary mouse hepatocytes

## c1ccc2c(c1)cc1ccc3cccc4ccc2c1c34 [BaP, Benzo(a)pyrene]
[1]; 24 h average
  Gene expression data AF000969 (Cadps2): −1.91
  Gene expression data AF022072 (Grb10): −0.2844
  Gene expression data AF065917 (Lif): 0.9227
  Gene expression data AF297615 (Ggta1): 1.735
  Gene expression data AI594683 (Dmn): 0.731
  Gene expression data AI596632 (Ptprg /// LOC632664): −1.8362
  Gene expression data AI987929 (Ndrg1): −0.3648
  Gene expression data AK004419 (Fbxl17): −1.001
  Gene expression data AK005731 (1700007K13Rik): 2.016
  Gene expression data AK007766 (1810044A24Rik): −1.288
  Gene expression data AK007854 (1810053B23Rik): 0.3514
  Gene expression data AK009736 (Gpr137b /// LOC664862 /// LOC673335): 0.2174
  Gene expression data AK010447 (Smyd3): −1.0413
  Gene expression data AK014608 (4632434l11Rik): 1.665
  Gene expression data AK019979 (2610528E23Rik): −0.6154
  Gene expression data AV095209 (Mthfd1l): −0.5885
  Gene expression data AV141095 (1110033M05Rik): −1.058
  Gene expression data AV173571 (1700106N22Rik): −1.123
  Gene expression data AV219418 (Ldhb): 0.2781
  Gene expression data AV223474 (Zdhhc14): −1.375
  Gene expression data AV298304 (Homez): 0.6204
  Gene expression data AV327248 (Zfp365 /// LOC674611): 1.102
  Gene expression data AV377066 (9130221J18Rik): 0.7572
  Gene expression data AW240761 (Tbc1d5): −0.703
  Gene expression data AW543460 (Pard3): −0.6194
  Gene expression data AW543723: 1.993
  Gene expression data AW986246 (Maoa): 0.1617
  Gene expression data BB027848 (4732466D17Rik): 0.0761
  Gene expression data BB043558 (9230114K14Rik): 1.247
  Gene expression data BB275142 (AW456874): 1.003
  Gene expression data BB308836 (Ppm1l): −0.6122
  Gene expression data BB318221 (Zdhhc14): −1.679
  Gene expression data BB463610 (4632434l11Rik): 2.144
  Gene expression data BB526605 (Mipol1): −0.7419
  Gene expression data BB770528 (Rai2): 0.6977
  Gene expression data BB821363 (Scfd2): −1.403
  Gene expression data BC004827 (Psat1): −0.04097
  Gene expression data BC008626 (Icam1): 0.8234
  Gene expression data BC010462 (BC010462): 0.6663
  Gene expression data BC012247 (Dcxr): 0.4451
  Gene expression data BC012260 (Psmf1): 0.3127
  Gene expression data BC015270 (Hist2h3c2): 0.7908
  Gene expression data BC016073 (Cdkal1): −0.6631
  Gene expression data BC016265 (Ube2e2): −0.751
  Gene expression data BC019882 (Acaa1b): 2.0133
  Gene expression data BC025501 (Aaas): 1.5389
  Gene expression data BC025837 (Sbk1): 0.3802
  Gene expression data BC025915 (Cova1): −0.5396
  Gene expression data BC026422 (Tgm1): 0.6019
  Gene expression data BF719766 (Thyn1): 0.9747
  Gene expression data BG065754 (Ccng1): 0.8607
  Gene expression data BG066903 (Kif16b): −0.133
  Gene expression data BG069873 (Gnb1l): 1.299
  Gene expression data BG070887 (Gtdc1): −0.9734
  Gene expression data BG076151 (Ppm1d): 0.728
  Gene expression data BG261907 (Large): −1.3429
  Gene expression data BI651416 (Cdc42bpg): 1.679
  Gene expression data BI660702 (Ell3): 1.3867
  Gene expression data BM198879 (Ercc5): 1.054
  Gene expression data BM230508 (A030007D23Rik): 1.297
  Gene expression data NM_007987 (Fas): 0.8287
  Gene expression data NM_008522 (Ltf): 1.114
  Gene expression data NM_008576 (Abcc1): 0.1024
  Gene expression data NM_011176 (St14): 1.508
  Gene expression data NM_011316 (Saa4): 0.1871
  Gene expression data NM_012006 (Acot1): 3.255
  Gene expression data NM_013866 (Zfp385): 0.776
  Gene expression data NM_018770 (Igsf4a): −0.8982
  Gene expression data NM_021451 (Pmaip1): 0.6364
  Gene expression data NM_025770 (Atg10): −1.053
  Gene expression data NM_028803 (Gbe1): −0.5416
  Gene expression data NM_030697 (Ankrd47): 1.4578
  Gene expression data NM_053168 (Trim11): 0.823
  Gene expression data NM_134188 (Acot2): 0.5856
  Gene expression data Y15910 (Diap2): −1.352
[1]; 48 h
  Gene expression AA561726 average: −1.7432
  Gene expression AF000969 average: −2.251
  Gene expression AF022072 average: −1.018
  Gene expression AF033112 average: 1.4254
  Gene expression AF055573 average: −1.5573
  Gene expression AF069954 average: 0.8863
  Gene expression AF297615 average: 1.572
  Gene expression AF335325 average: 1.4875
  Gene expression AI594683 average: 1.466
  Gene expression AI747296 average: −2.124
  Gene expression AK005731 average: 3.0498
  Gene expression AK007854 average: 1.6125
  Gene expression AK010447 average: −1.207
  Gene expression AK010738 average: 0.9112
  Gene expression AK014608 average: 1.245
  Gene expression AK017734 average: 0.7529
  Gene expression AK018383 average: 1.273
  Gene expression AK019979 average: −1.0966
  Gene expression AV095209 average: −0.7654
  Gene expression AV141095 average: −1.4056
  Gene expression AV173869 average: −1.924
  Gene expression AV216768 average: −1.447
  Gene expression AV219418 average: 1.558
  Gene expression AV221299 average: −1.169
  Gene expression AV246296 average: 1.1524
  Gene expression AV251625 average: 1.731
  Gene expression AV254764 average: 1.48
  Gene expression AV327248 average: 2.067
  Gene expression BB009155 average: 0.784
  Gene expression BB027848 average: 0.4738
  Gene expression BB043558 average: 1.692
  Gene expression BB046347 average: 0.7766
  Gene expression BB140436 average: −0.4572
  Gene expression BB204486 average: −1.5693
  Gene expression BB223872 average: 1.1634
  Gene expression BB246912 average: −1.54
  Gene expression BB275142 average: 1.0559
  Gene expression BB458460 average: −1.384
  Gene expression BB463610 average: 1.672
  Gene expression BB730977 average: 0.4218
  Gene expression BB743970 average: 1.51
  Gene expression BB770528 average: 0.7877
  Gene expression BB781615 average: 0.9271
  Gene expression BC003284 average: 0.7313
  Gene expression BC004827 average: −1.186
  Gene expression BC005552 average: −0.2121
  Gene expression BC006713 average: 0.4721
  Gene expression BC010318 average: −0.5529
  Gene expression BC012247 average: 1.477
  Gene expression BC012955 average: −0.9445
  Gene expression BC013893 average: 1.04
  Gene expression BC017615 average: −2.234
  Gene expression BC019379 average: −1.9807
  Gene expression BC019882 average: 2.16
  Gene expression BC021352 average: 0.7052
  Gene expression BC022148 average: 1.324
  Gene expression BC025169 average: −0.5114
  Gene expression BC026131 average: −1.045
  Gene expression BC027026 average: 1.379
  Gene expression BC027121 average: 1.345
  Gene expression BC027185 average: 0.7081
  Gene expression BE956581 average: 1.451
  Gene expression BF719766 average: 0.9507
  Gene expression BG065754 average: 0.9746
  Gene expression BG066491 average: −2.098
  Gene expression BG076151 average: 0.7599
  Gene expression BG076333 average: −0.4091
  Gene expression BG797099 average: 1.8809
  Gene expression BG967046 average: 0.5936
  Gene expression BI651416 average: 1.9573
  Gene expression BI966443 average: 1.3186
  Gene expression BM198879 average: 0.8089
  Gene expression BM200015 average: 1.0174
  Gene expression BM230508 average: 1.158
  Gene expression BM936480 average: 3.0213
  Gene expression BQ174991 average: −1.408
  Gene expression L21027 average: −1.779
  Gene expression NM_007556 average: −1.089
  Gene expression NM_007980 average: 1.753
  Gene expression NM_007987 average: 1.353
  Gene expression NM_008522 average: 2.9351
  Gene expression NM_008935 average: −1.4799
  Gene expression NM_009897 average: 1.182
  Gene expression NM_011075 average: 1.198
  Gene expression NM_011176 average: 1.4287
  Gene expression NM_011316 average: 0.8735
  Gene expression NM_012006 average: 2.867
  Gene expression NM_013642 average: −1.442
  Gene expression NM_013738 average: 0.9012
  Gene expression NM_013929 average: 1.062
  Gene expression NM_018881 average: 3.369
  Gene expression NM_019738 average: −2.586
  Gene expression NM_030697 average: 1.3687
  Gene expression NM_053122 average: −1.795
  Gene expression NM_134147 average: −1.2396
  Gene expression NM_134188 average: 0.2884
  Gene expression X62701 average: −1.2338
[2]
  Gene expression data AF204959 (Cyp3a25 /// LOC622249): 0.3057
